*1 amine or outer side, *2 acyl side, *3 side chain or, on linkers, in order; H or OH if unused. Where a SMILES comes first, the peptide text is derived from it. Bridges are numbered along the chain shown (N, C = ends). [ ]: non-standard residue; d: D form. The star is where a group is joined. Orn(4R-OH,5R-OCH2CH2NMe3+) = C[N+](C)(C)CCO[C@@H](N[*:3])[C@H](O)C[C@H](N[*:1])C(=O)[*:2]; hTyr(3S-OH,4S-OH) = N[C@H](C(=O)O)[C@H](O)[C@@H](O)c1ccc(O)cc1; X1 = CC(O)CCCOc1ccc(-c2ccc(-c3ccc(C(=O)*)cc3)cc2)cc1; X2 = CCCC(O)COc1ccc(-c2ccc(-c3ccc(C(=O)*)cc3)cc2)cc1; X3 = CCC(O)CCOc1ccc(-c2ccc(-c3ccc(C(=O)*)cc3)cc2)cc1; Pro(3S-OH,4S-Me) = C[C@H]1CN[C@H](C(=O)O)[C@H]1O; X4 = O=C(c1ccc(-c2ccc(-c3ccc(O)cc3)cc2)cc1)*; Hyp = O=C(O)[C@@H]1C[C@@H](O)CN1

Series [1] can be described thus: Monkey metabolite profiling (LC-MS with radioactivity detection). It counts as in vivo, cynomolgus monkeys. To be noted: cynomolgus monkey, in vivo, iv, 10 mg/kg. As to the method:
(ii) Monkey study design. The study used 3 male cynomolgus monkeys, each administered a single 10 mg/kg IV dose of [^14C]-rezafungin (with a target radioactivity of 100 μCi/kg of [^14C]-rezafungin) by infusion into a saphenous vein over 20 min. Whole blood and plasma samples were collected at each of the following time points: predose, 0.5, 2, 4, 8, 24, 48, 96 120, 144, 168, 240, 480, 720, and 1440 h postdose. Urine, feces, and cage washings were collected at predose (urine/feces only) and daily 24-h collections for 30 days.
(§1) (iv) Metabolite profiling. The metabolite identification and urine profiling were achieved using pooled samples by equal percent weight of samples (urine, bile, feces) or by equal volume (50 μl) aliquots of each plasma sample across all time points/intervals. The urine, plasma, bile, and fecal samples were analyzed using liquid chromatography tandem mass spectrometry (LC-MS) coupled with a radioactivity flow-through detector for metabolite profiling and identification. Tandem MS experiments were performed, and the structures of the metabolites were proposed based on their MS/MS spectra. The proposed structures were confirmed by comparison of the retention times and product ion spectra with the authentic reference standards when possible.

A short description of series [2]: Rat metabolite profiling (LC-MS with radioactivity detection). In kind it is in vivo, Sprague-Dawley rats. To be noted: rat, in vivo, iv, 15 mg/kg. The method, then: (i) Rat study design. The study used 12 male Sprague-Dawley rats, each administered a bolus IV injection into the tail vein over approximately 3–4 min of 15 mg/kg of rezafungin (with a target radioactivity of 200 μCi/kg of [^14C]-rezafungin). Three of the rats were bile duct cannulated. Whole blood/plasma, urine, feces/bile, and cage washings were collected at periodic intervals from noncannulated rats until euthanization at 336 h postdose and from bile duct cannulated rats until euthanization at 120 h postdose as that was the duration that the patency of bile duct cannulae could be maintained. Carcasses were collected at the time of euthanization. All samples were analyzed for drug-derived radioactivity by liquid scintillation counting.
as §1

The conditions of series [3]: cited from earlier work. An excerpt:
Biliary excretion has been observed for caspofungin([17]) and anidulafungin([18]). In the case of anidulafungin, although uncommon, passive diffusion (up to 10% of dosed fraction) was reported for anidulafungin, with which rezafungin ...

In the case of `CCCC(O)COc1ccc(-c2ccc(-c3ccc(C(=O)N[C@H]4C[C@@H](O)[C@@H](OCC[N+](C)(C)C)NC(=O)[C@@H]5[C@@H](O)[C@@H](C)CN5C(=O)[C@H]([C@@H](C)O)NC(=O)[C@H]([C@H](O)[C@@H](O)c5ccc(O)cc5)NC(=O)[C@@H]5C[C@@H](O)CN5C(=O)[C@H]([C@@H](C)O)NC4=O)cc3)cc2)cc1` (stereo partly drawn) [2’-hydroxylpentyl rezafungin] (X2-[Orn(4R-OH,5R-OCH2CH2NMe3+)]T[Hyp][hTyr(3S-OH,4S-OH)]T[Pro(3S-OH,4S-Me)]; lactam 1-C), in series [1], the “Share of total plasma radioactivity exposure” value is 3.0% and the “Share of total recovered radioactivity in urine” value (“Share … in urine” below) was found to be 25%. Further, in series [2], the “Share of total plasma radioactivity exposure” value was roughly 11% and the “Share … in urine” value came to 7.8%.
On to `CCC(O)CCOc1ccc(-c2ccc(-c3ccc(C(=O)N[C@H]4C[C@@H](O)[C@@H](OCC[N+](C)(C)C)NC(=O)[C@@H]5[C@@H](O)[C@@H](C)CN5C(=O)[C@H]([C@@H](C)O)NC(=O)[C@H]([C@H](O)[C@@H](O)c5ccc(O)cc5)NC(=O)[C@@H]5C[C@@H](O)CN5C(=O)[C@H]([C@@H](C)O)NC4=O)cc3)cc2)cc1` (stereo partly drawn) [3′-hydroxylpentyl rezafungin] (X3-[Orn(4R-OH,5R-OCH2CH2NMe3+)]T[Hyp][hTyr(3S-OH,4S-OH)]T[Pro(3S-OH,4S-Me)]; lactam 1-C), for which, in series [1], the “Share of total plasma radioactivity exposure” value worked out at 6.3% and the “Share … in urine” value is recorded as 12%. Moreover, the “Share … in urine” value in series [2] amounted to 1.9%.
In the case of `C[C@@H](O)[C@@H]1NC(=O)[C@H]([C@H](O)[C@@H](O)c2ccc(O)cc2)NC(=O)[C@@H]2C[C@@H](O)CN2C(=O)[C@H]([C@@H](C)O)NC(=O)[C@@H](NC(=O)c2ccc(-c3ccc(-c4ccc(O)cc4)cc3)cc2)C[C@@H](O)[C@@H](OCC[N+](C)(C)C)NC(=O)[C@@H]2[C@@H](O)[C@@H](C)CN2C1=O` [despentyl-rezafungin] (X4-[Orn(4R-OH,5R-OCH2CH2NMe3+)]T[Hyp][hTyr(3S-OH,4S-OH)]T[Pro(3S-OH,4S-Me)]; lactam 1-C), the “Share of total recovered radioactivity in feces” value in series [1] stood at 25%. The “Share … in urine” value in series [1] stood at 22%; in series [2], 28%.
For anidulafungin, in series [3], the “Passive diffusion, dosed fraction” value is reported as “up to 10 % of dosed fraction”.
As for `CC(O)CCCOc1ccc(-c2ccc(-c3ccc(C(=O)N[C@H]4C[C@@H](O)[C@@H](OCC[N+](C)(C)C)NC(=O)[C@@H]5[C@@H](O)[C@@H](C)CN5C(=O)[C@H]([C@@H](C)O)NC(=O)[C@H]([C@H](O)[C@@H](O)c5ccc(O)cc5)NC(=O)[C@@H]5C[C@@H](O)CN5C(=O)[C@H]([C@@H](C)O)NC4=O)cc3)cc2)cc1` (stereo partly drawn) [4’-hydroxylpentyl rezafungin] (X1-[Orn(4R-OH,5R-OCH2CH2NMe3+)]T[Hyp][hTyr(3S-OH,4S-OH)]T[Pro(3S-OH,4S-Me)]; lactam 1-C), in series [1], the “Share of total plasma radioactivity exposure” value was found to be 8.3% and the “Share … in urine” value is 42%. Also, in series [2], the “Share of total plasma radioactivity exposure” value is “about 33%” and the “Share … in urine” value came to 62%.
